Assay results from patent US20210221812A1, “MATRINE a-KETOAMINE COMPOUNDS, PREPARATION METHOD THEREFOR AND USE THEREOF” (SHANGHAI XINGYE PHARMACEUTICAL TECHNOLOGY CO., LTD, priority 2018, published 2021).

System: TNF-α
Assay: TNF-α activity inhibiting assay (LPS-stimulated peripheral blood, ELISA)
Format: cell-based, human
Settings: Homo sapiens, compound 20 μM, LPS 10 ng/mL, 6 hours, diluted peripheral blood of healthy volunteers, read-out: TNF-α inhibition rate (%)
Method: Methods: Peripheral blood from healthy volunteers was collected with EDTA anticoagulant tubes. After being diluted 5-fold with 1640 medium (Gibco, USA), the blood was added to 96-well cell culture plates (Costar, USA) and then treated with 10 μL solution of the compound of general formula (I) of the present invention in DMSO (Sigma, USA), the final concentration of the compound was 20 μM with the final concentration of DMSO was 0.2%. After incubation for 60 minutes in an incubator at 37° C. under 5% CO2, 10 μL LPS (Sigma, USA) was added to the reaction system, and the final concentration was 10 ng/mL. After further culturing for 6 hours in the incubator at 37° C. under 5% CO2, the supernatant was collected. The content of TNF-α was determined by ELISA (BD Biosciences, USA). Absorbance was detected at OD450 nm with a microplate reader, with OD 650 nm as reference. The control, a solution containing 0.2% DMSO medium, was as 0% inhibition. Raw data and standard curves were recorded. The four-parameter drug inhibition curve was plotted by XL-fit software and the inhibition rate of each compound was calculated.

| Structure (SMILES) | inhibition at 20 µM |
| --- | --- |
| O=C1c2cccc([N+](=O)[O-])c2C(=O)N1C1CC[C@@H]2[C@H]3CCCN4CCC[C@@H](CN2C1=O)[C@@H]34 (some centres unmarked) [GJD 05] | > 50% |
| COc1ccc(C(=O)NC2CC[C@@H]3[C@H]4CCCN5CCC[C@@H](CN3C2=O)[C@@H]45)cc1OC1CCCC1 (some centres unmarked) [GJD 53] | > 50% |
| Nc1ccccc1C(=O)NC1CC[C@@H]2[C@H]3CCCN4CCC[C@@H](CN2C1=O)[C@@H]34 (some centres unmarked) [GJD 49] | > 50% |
| COc1cccc2c1C(=O)N(C1CC[C@@H]3[C@H]4CCCN5CCC[C@@H](CN3C1=O)[C@@H]45)C2=O (some centres unmarked) [GJD 09] | > 50% |
| Cc1cccc2c1CN(C1CC[C@@H]3[C@H]4CCCN5CCC[C@H](CN3C1=O)[C@@H]45)C2=O (some centres unmarked) [GJD 44] | > 50% |
| Cc1cccc2c1C(=O)N(C1CC[C@@H]3[C@H]4CCCN5CCC[C@H](CN3C1=O)[C@@H]45)C2=O (some centres unmarked) [GJD 29] | > 50% |
| N#Cc1cccc2c1C(=O)N(C1CC[C@@H]3[C@H]4CCCN5CCC[C@@H](CN3C1=O)[C@@H]45)C2=O (some centres unmarked) [GJD 06] | > 50% |
| COc1cc2c(cc1OC)C(=O)N(C1CC[C@@H]3[C@H]4CCCN5CCC[C@@H](CN3C1=O)[C@@H]45)C2=O (some centres unmarked) [GJD 19] | < 50% |
| O=C1c2ccccc2CN1C1CC[C@@H]2[C@H]3CCCN4CCC[C@@H](CN2C1=O)[C@@H]34 (some centres unmarked) [GJD 30] | < 50% |
| CCOc1cc(C(=O)NC2CC[C@@H]3[C@H]4CCCN5CCC[C@@H](CN3C2=O)[C@@H]45)ccc1OC (some centres unmarked) [GJD 54] | > 50% |
| O=C1c2ccccc2C(=O)N1C1=CC[C@@H]2[C@H]3CCCN4CCC[C@@H](CN2C1=O)[C@@H]34 [GJD 22] | > 50% |
| O=C1c2cccc(Cl)c2C(=O)N1C1CC[C@@H]2[C@H]3CCCN4CCC[C@@H](CN2C1=O)[C@@H]34 (some centres unmarked) [GJD 04] | > 50% |
| Nc1cccc2c1C(=O)N(C1CC[C@@H]3[C@H]4CCCN5CCC[C@H](CN3C1=O)[C@@H]45)C2=O (some centres unmarked) [GJD 27] | > 50% |
| O=C1CCC[C@@H]2[C@H]3CCCN4CCC[C@H](CN12)[C@@H]34 [Sophoridine, sophoridine, reference compound] | < 50% |
| C#Cc1cccc2c1C(=O)N(C1CC[C@@H]3[C@H]4CCCN5CCC[C@@H](CN3C1=O)[C@@H]45)C2=O (some centres unmarked) [GJD 11] | < 50% |
| O=C1CCC[C@@H]2[C@H]3CCC[N+]4([O-])CCC[C@@H](CN12)[C@@H]34 (some centres unmarked) [Oxymatrine, oxymatrine, reference compound] | < 50% |
| CC(C)Nc1cccc2c1C(=O)N(C1CC[C@@H]3[C@H]4CCCN5CCC[C@@H](CN3C1=O)[C@@H]45)C2=O (some centres unmarked) [GJD 12] | > 50% |
| CC(=O)Nc1cccc2c1C(=O)N(C1CC[C@@H]3[C@H]4CCCN5CCC[C@@H](CN3C1=O)[C@@H]45)C2=O (some centres unmarked) [GJD 13] | > 50% |
| Nc1ccc2c(c1)C(=O)N(C1CC[C@@H]3[C@H]4CCCN5CCC[C@@H](CN3C1=O)[C@@H]45)C2=O (some centres unmarked) [GJD 18] | < 50% |

System: Lovo cells
Assay: MTT tumor cell growth inhibition, Lovo
Format: cell-based
Settings: Homo sapiens, 48 h, read-out: Tumors growth-inhibitory activity (IC50) Lovo
Method: (§1) Using MTT method to determine the growth inhibition activity of the matrine compounds on Lovo, MGC-803, Mia-paca2, HpeG-2, A549, k562, and Panc-1 cells in vitro. Logarithmic growth phase of Lovo, MGC-803, Mia-paca2, HpeG-2, A549, k562, Panc-1 cells were inoculated into 96-well plates (purchased from Institute of Biochemical Cells, Chinese Academy of Sciences, and cultured according to conventional tumor cell culture methods) at a density of 4×10^4/mL and 180 μL/well; after the cells adhered to the wall, 20 μL of drug solution was added to each well and matined the final drug concentrations were 0.1 μM, 1 μM, 10 μM, 50 μM, 100 μM respectively. After 48 h, 5 mg/mL MTT solution was added (20 μL/well) and maintained in a CO2 incubator for 3-4 h. After that, discarding the supernatant carefully, and DMSO was added (200 μL/well) when the residual liquid was air-dried, and shook for 0.5-1 h until the residual crystals was dissolved. The absorbance OD was measured at 492 nm by a microplate reader. GraphPad Prism 5 software was used to calculate the IC50 value.

| IC50 | Structure (SMILES) |
| --- | --- |
| 50 to 100 µM | N#Cc1cccc2c1C(=O)N(C1CC[C@@H]3[C@H]4CCCN5CCC[C@@H](CN3C1=O)[C@@H]45)C2=O (some centres unmarked) [GJD 06] |

System: MGC-803 cells
Assay: MTT tumor cell growth inhibition, MGC-803
Format: cell-based
Settings: Homo sapiens, 48 h, read-out: Tumors growth-inhibitory activity (IC50) MGC-803
Method: as §1

| IC50 | Structure (SMILES) |
| --- | --- |
| > 100 µM | N#Cc1cccc2c1C(=O)N(C1CC[C@@H]3[C@H]4CCCN5CCC[C@@H](CN3C1=O)[C@@H]45)C2=O (some centres unmarked) [GJD 06] |

System: Mia-paca2 cells
Assay: MTT tumor cell growth inhibition, Mia-paca2
Format: cell-based
Settings: Homo sapiens, MIA PaCa-2, 48 h, read-out: Tumors growth-inhibitory activity (IC50) Mia-paca2
Method: as §1

| IC50 | Structure (SMILES) |
| --- | --- |
| 50 to 100 µM | N#Cc1cccc2c1C(=O)N(C1CC[C@@H]3[C@H]4CCCN5CCC[C@@H](CN3C1=O)[C@@H]45)C2=O (some centres unmarked) [GJD 06] |

System: HpeG-2 cells
Assay: MTT tumor cell growth inhibition, HpeG-2
Format: cell-based
Settings: 48 h, read-out: Tumors growth-inhibitory activity (IC50) HpeG-2
Method: as §1

| IC50 | Structure (SMILES) |
| --- | --- |
| < 50 µM | N#Cc1cccc2c1C(=O)N(C1CC[C@@H]3[C@H]4CCCN5CCC[C@@H](CN3C1=O)[C@@H]45)C2=O (some centres unmarked) [GJD 06] |

System: k562 cells
Assay: MTT tumor cell growth inhibition, k562
Format: cell-based
Settings: Homo sapiens, 48 h, read-out: Tumors growth-inhibitory activity (IC50) k562
Method: as §1

| IC50 | Structure (SMILES) |
| --- | --- |
| 50 to 100 µM | N#Cc1cccc2c1C(=O)N(C1CC[C@@H]3[C@H]4CCCN5CCC[C@@H](CN3C1=O)[C@@H]45)C2=O (some centres unmarked) [GJD 06] |

System: A549 cells
Assay: MTT tumor cell growth inhibition, A549
Format: cell-based
Settings: Homo sapiens, 48 h, read-out: Tumors growth-inhibitory activity (IC50) A549
Method: as §1

| IC50 | Structure (SMILES) |
| --- | --- |
| 50 to 100 µM | N#Cc1cccc2c1C(=O)N(C1CC[C@@H]3[C@H]4CCCN5CCC[C@@H](CN3C1=O)[C@@H]45)C2=O (some centres unmarked) [GJD 06] |

System: Panc-1 cells
Assay: MTT tumor cell growth inhibition, Panc-1
Format: cell-based
Settings: Homo sapiens, 48 h, read-out: Tumors growth-inhibitory activity (IC50) Panc-1
Method: as §1

| IC50 | Structure (SMILES) |
| --- | --- |
| 50 to 100 µM | N#Cc1cccc2c1C(=O)N(C1CC[C@@H]3[C@H]4CCCN5CCC[C@@H](CN3C1=O)[C@@H]45)C2=O (some centres unmarked) [GJD 06] |
